Assays:
[1] = test system: ESAT-6 peptide-specific IFN-γ-secreting T cells from peripheral blood; type: cell-based, human; settings: for % of TB patients responding to individual peptide: peptide 10 μg/ml, 3×10^5 PBMC/well, positive = at least 5 IFN-γ SFCs more than and at least twice negative control
HLA DR7 = assay: Peptide binding to HLA DR7
HLA DR1 = assay: Peptide binding to HLA DR1

Row | Sequence | % of TB patients responding to individual peptide [1] [%] | further results
1 | WNFAGIEAAASAIQG [ES2] | 40 | 
2 | NLARTISEAGQAMAS [ES15] | 34 | 
3 | YQGVQQKWDATATEL [ES11] | 34 | 
4 | NNALQNLARTISEAG [ES14] | 28 | Detection of ESAT-6-specific CD8 T cells ([1]; peptide contains CD8 epitopes): detected
5 | MTEQQWNFAGIEAAA (listed as Mycobacterium tuberculosis) [ES1, 15-mer peptide from ESAT-6 of M. tuberculosis] | 57 | % of healthy contacts tested recognising the peptide ([1]; healthy contacts exposed to open pulmonary tuberculosis): 68%; Number of contacts testing positive ([1]; out of 22 contacts with prolonged exposure to smear positive index case, Heaf test grade 3 or 4): 15; Binding to HLA DR7 (HLA DR7): binds; Binding to HLA DR1 (HLA DR1): binds
6 | EGKQSLTKLAAAWGG (listed as Mycobacterium tuberculosis) [ES7, 15-mer peptide from ESAT-6 of M. tuberculosis] | 15 | 
7 | SAIQGNVTSIHSLLD (listed as Mycobacterium tuberculosis) [ES4, 15-mer peptide from ESAT-6 of M. tuberculosis] | 23 | 
8 | QKWDATATELNNALQ (listed as Mycobacterium tuberculosis) [ES12, 15-mer peptide from ESAT-6 of M. tuberculosis] | 25 | 

— patent US9005902B2, “Tuberculosis diagnostic test” (priority 1998, dated 2015)
